In US7547679B2, “Ether linked macrolides useful for the treatment of microbial infections” (GlaxoSmithKline istrazivacki center Zagreb d.o.o, priority 2005, dated 2009):
Where a name gives a salt, the structure may show the parent alone.

Legend:
Format in all cases: cell-based
[1] = test system: erythromycin resistant strain of Streptococcus pyogenes; assay: MIC, microtiter broth serial dilution test, erythromycin resistant S. pyogenes; conditions: read-out: MIC against erythromycin resistant strain of Streptococcus pyogenes
sensitive S. pneumoniae = assay: MIC, microtiter broth serial dilution test, sensitive S. pneumoniae; conditions: Streptococcus pneumoniae; sensitive strain; read-out: MIC against sensitive S. pneumoniae
sensitive S. pyogenes = assay: MIC, microtiter broth serial dilution test, sensitive S. pyogenes; conditions: Streptococcus pyogenes; sensitive strain; read-out: MIC against sensitive S. pyogenes
E. faecalis = assay: MIC, microtiter broth serial dilution test, E. faecalis; conditions: Enterococcus faecalis; read-out: MIC against E. faecalis
[2] = test system: erythromycin resistant strain of Streptococcus pneumoniae; assay: MIC, microtiter broth serial dilution test, erythromycin resistant S. pneumoniae; conditions: read-out: MIC against erythromycin resistant strain of Streptococcus pneumoniae
M. catarrhalis = assay: MIC, microtiter broth serial dilution test, M. catarrhalis; conditions: Moraxella catarrhalis; read-out: MIC against M. catarrhalis

CC[C@H]1OC(=O)[C@H](C)[C@@H](O[C@H]2C[C@@](C)(OC)[C@@H](OCCCOCCOCCCc3ccc4c(c3)c(=O)c(C(=O)O)cn4N(C)C)[C@H](C)O2)[C@H](C)[C@@H](O[C@@H]2O[C@H](C)C[C@H](N(C)C)[C@H]2O)[C@](C)(O)C[C@@H](C)CN(C)[C@H](C)[C@@H](O)[C@]1(C)O [Example 15, 4″-O-(3-{2-[3-(3-Carboxy-1-dimethylamino-4-oxo-1,4-dihydro-quinolin-6-yl)-propoxy]-ethoxy}-propyl)-azithromycin]
MIC [1]: ≤ 0.25 µg/mL
MIC (sensitive S. pneumoniae): ≤ 0.125 µg/mL
MIC (sensitive S. pyogenes): ≤ 0.125 µg/mL
MIC (E. faecalis): ≤ 1 µg/mL
MIC [2]: ≤ 0.25 µg/mL
MIC (M. catarrhalis): ≤ 1 µg/mL

CC[C@H]1OC(=O)[C@H](C)[C@@H](O[C@H]2C[C@@](C)(OC)[C@@H](OCCNCCOCCNc3cc4c(cc3F)c(=O)c(C(=O)O)cn4C3CC3)[C@H](C)O2)[C@H](C)[C@@H](O[C@@H]2O[C@H](C)C[C@H](N(C)C)[C@H]2O)[C@](C)(O)C[C@@H](C)CN(C)[C@H](C)[C@H]2OC(=O)O[C@@]21C [Example 16, 4″-O-(2-{2-[2-(3-Carboxy-6-fluoro-1-cyclopropyl-4-oxo-1,4-dihydro-quinolin-7-ylamino)-ethoxy]-ethylamino}-ethyl)-azithromycin 11,12-cyclic carbonate]
MIC [1]: ≤ 0.25 µg/mL
MIC (sensitive S. pneumoniae): ≤ 0.125 µg/mL
MIC (sensitive S. pyogenes): ≤ 0.125 µg/mL
MIC (E. faecalis): ≤ 1 µg/mL
MIC [2]: ≤ 0.25 µg/mL

CC[C@H]1OC(=O)[C@H](C)[C@@H](O[C@H]2C[C@@](C)(OC)[C@@H](OCCCNC(=O)CCOCCCc3ccc4c(c3)c(=O)c(C(=O)O)cn4N(C)C)[C@H](C)O2)[C@H](C)[C@@H](O[C@@H]2O[C@H](C)C[C@H](N(C)C)[C@H]2O)[C@](C)(OC)C[C@H](C)C(=O)[C@H](C)[C@@H](O)[C@]1(C)O [Example 9, 4″-O-(3-{3-[3-(3-Carboxy-1-dimethylamino-4-oxo-1,4-dihydro-quinolin-6-yl)-propoxy]-propionylamino}-propyl)-6-O-methyl-erythromycin A]
MIC [1]: ≤ 0.25 µg/mL
MIC (sensitive S. pneumoniae): ≤ 0.125 µg/mL
MIC (sensitive S. pyogenes): ≤ 0.125 µg/mL
MIC (E. faecalis): ≤ 1 µg/mL
MIC (M. catarrhalis): ≤ 1 µg/mL

CC[C@H]1OC(=O)[C@H](C)[C@@H](O[C@H]2C[C@@](C)(OC)[C@@H](OCCCOCCCOCCCc3ccc4c(c3)c(=O)c(C(=O)O)cn4C3CC3)[C@H](C)O2)[C@H](C)[C@@H](O[C@@H]2O[C@H](C)C[C@H](N(C)C)[C@H]2O)[C@](C)(O)C[C@@H](C)CN(C)[C@H](C)[C@@H](O)[C@]1(C)O [Example 13, 4″-O-(3-{3-[3-(3-Carboxy-1-cyclopropyl-4-oxo-1,4-dihydro-quinolin-6-yl)-propoxy]-propoxy}-propyl)-azithromycin]
MIC [1]: ≤ 0.25 µg/mL
MIC (sensitive S. pneumoniae): ≤ 0.125 µg/mL
MIC (sensitive S. pyogenes): ≤ 0.125 µg/mL
MIC (E. faecalis): ≤ 1 µg/mL
MIC [2]: ≤ 0.25 µg/mL
MIC (M. catarrhalis): ≤ 1 µg/mL

CC[C@H]1OC(=O)[C@H](C)[C@@H](OC2C[C@@](C)(OC)[C@@H](OCCNCCOCCNc3cc4c(=O)c(C(=O)O)cn(C5CC5)c4cc3Cl)[C@H](C)O2)[C@H](C)[C@@H](O[C@@H]2O[C@H](C)C[C@H](N(C)C)[C@H]2O)[C@](C)(O)C[C@@H](C)CN(C)[C@H](C)[C@@H]2OC(=O)O[C@]12C (stereo partly shown) [Example 3, 4″-O-(2-{2-[2-(3-Carboxy-7-chloro-1-cyclopropyl-4-oxo-1,4-dihydro-quinolin-6-ylamino)-ethoxy]-ethylamino}-ethyl)-azithromycin 11,12-cyclic carbonate]
MIC [1]: ≤ 0.25 µg/mL
MIC (sensitive S. pneumoniae): ≤ 0.125 µg/mL
MIC (sensitive S. pyogenes): ≤ 0.125 µg/mL
MIC (E. faecalis): ≤ 1 µg/mL
MIC [2]: ≤ 0.25 µg/mL

CC[C@H]1OC(=O)[C@H](C)[C@@H](O[C@H]2C[C@@](C)(OC)[C@@H](OCCCNC(=O)CCOCCOCCNc3cc4c(=O)c(C(=O)O)cn(C5CC5)c4cc3Cl)[C@H](C)O2)[C@H](C)[C@@H](O[C@@H]2O[C@H](C)C[C@H](N(C)C)[C@H]2O)[C@](C)(O)C[C@@H](C)CN(C)[C@H](C)[C@@H](O)[C@]1(C)O [Example 11, 4″-O-[3-(3-{2-[2-(3-carboxy-7-chloro-1-cyclopropyl-4-oxo-1,4-dihydro-quinolin-6-ylamino)-ethoxy]-ethoxy}-propionylamino)-propyl]-azithromycin]
MIC [1]: ≤ 0.25 µg/mL
MIC (sensitive S. pneumoniae): ≤ 0.125 µg/mL
MIC (sensitive S. pyogenes): ≤ 0.125 µg/mL
MIC (E. faecalis): ≤ 1 µg/mL
MIC [2]: ≤ 0.25 µg/mL

CC[C@H]1OC(=O)[C@H](C)[C@@H](O[C@H]2C[C@@](C)(OC)[C@@H](OCCCOCCOCCCc3ccc4c(c3)c(=O)c(C(=O)O)cn4CC)[C@H](C)O2)[C@H](C)[C@@H](O[C@@H]2O[C@H](C)C[C@H](N(C)C)[C@H]2O)[C@](C)(O)C[C@@H](C)CN(C)[C@H](C)[C@@H](OC)[C@]1(C)O [Example 8, 4″-O-(3-{2-[3-(3-Carboxy-1-ethyl-4-oxo-1,4-dihydro-quinolin-6-yl)-propoxy]-ethoxy}-propyl)-11-O-methyl azithromycin]
MIC [1]: ≤ 0.25 µg/mL
MIC [2]: ≤ 0.25 µg/mL
MIC (M. catarrhalis): ≤ 1 µg/mL

CC[C@H]1OC(=O)[C@H](C)[C@@H](OC2C[C@@](C)(OC)[C@@H](OCCNCCOCCOCCNc3cc4c(=O)c(C(=O)O)cn(C5CC5)c4cc3Cl)[C@H](C)O2)[C@H](C)[C@@H](O[C@@H]2O[C@H](C)C[C@H](N(C)C)[C@H]2O)[C@](C)(O)C[C@@H](C)CN(C)[C@H](C)[C@@H]2OC(=O)O[C@]12C (stereo partly shown) [Example 2, 4″-O-[2-(2-{2-[2-(3-Carboxy-7-chloro-1-cyclopropyl-4-oxo-1,4-dihydro-quinolin-6-yl-amino)-ethoxy]-ethoxy}-ethylamino)-ethyl]-azithromycin 11,12-cyclic carbonate]
MIC [1]: ≤ 0.25 µg/mL
MIC (sensitive S. pneumoniae): ≤ 0.125 µg/mL
MIC (sensitive S. pyogenes): ≤ 0.125 µg/mL
MIC (E. faecalis): ≤ 1 µg/mL
MIC [2]: ≤ 0.25 µg/mL

CC[C@H]1OC(=O)[C@H](C)[C@@H](O[C@H]2C[C@@](C)(OC)[C@@H](OCCCNCCOCCCc3ccc4c(c3)c(=O)c(C(=O)O)cn4CC)[C@H](C)O2)[C@H](C)[C@@H](O[C@@H]2O[C@H](C)C[C@H](N(C)C)[C@H]2O)[C@](C)(O)C[C@@H](C)CN(C)[C@H](C)[C@@H](O)[C@]1(C)O [Example 5, 4″-O-(3-{2-[3-(3-Carboxy-1-ethyl-4-oxo-1,4-dihydro-quinolin-6-yl)-propoxy]-ethylamnio}-propyl)-azithromycin]
MIC [1]: ≤ 0.25 µg/mL
MIC (sensitive S. pneumoniae): ≤ 0.125 µg/mL
MIC (sensitive S. pyogenes): ≤ 0.125 µg/mL
MIC (E. faecalis): ≤ 1 µg/mL
MIC [2]: ≤ 0.25 µg/mL
MIC (M. catarrhalis): ≤ 1 µg/mL

CC[C@H]1OC(=O)[C@H](C)[C@@H](O[C@H]2C[C@@](C)(OC)[C@@H](OCCNCCOCCOCCc3ccc4c(c3)c(=O)c(C(=O)O)cn4CC)[C@H](C)O2)[C@H](C)[C@@H](O[C@@H]2O[C@H](C)C[C@H](N(C)C)[C@H]2O)[C@](C)(OC)C[C@@H](C)C(=O)[C@H](C)[C@@H](O)[C@]1(C)O [Example 18, 4″-O-{2-({2-[(2-{[2-(3-Carboxy-1-ethyl-4-oxo-1,4-dihydro-6-quinolinyl)ethyl]oxy}ethyl)oxy]ethyl}amino)ethyl}-6-O-methyl-erythromycin A formate]
MIC [1]: ≤ 0.25 µg/mL
MIC (sensitive S. pneumoniae): ≤ 0.125 µg/mL
MIC (sensitive S. pyogenes): ≤ 0.125 µg/mL
MIC (E. faecalis): ≤ 1 µg/mL
MIC [2]: ≤ 0.25 µg/mL
MIC (M. catarrhalis): ≤ 1 µg/mL

CC[C@H]1OC(=O)[C@H](C)[C@@H](O[C@H]2C[C@@](C)(OC)[C@@H](OCCN(C)CCOCCOCCc3ccc4c(c3)c(=O)c(C(=O)O)cn4CC)[C@H](C)O2)[C@H](C)[C@@H](O[C@@H]2O[C@H](C)C[C@H](N(C)C)[C@H]2O)[C@](C)(OC)C[C@@H](C)C(=O)[C@H](C)[C@@H](O)[C@]1(C)O [Example 19, 4″-O-{2-({2-[(2-{[2-(3-Carboxy-1-ethyl-4-oxo-1,4-dihydro-6-quinolinyl)ethyl]oxy}ethyl)oxy]ethyl}methylamino)ethyl}-6-O-methyl-erythromycin A]
MIC [1]: ≤ 0.25 µg/mL
MIC (sensitive S. pneumoniae): ≤ 0.125 µg/mL
MIC (sensitive S. pyogenes): ≤ 0.125 µg/mL
MIC (E. faecalis): ≤ 1 µg/mL
MIC [2]: ≤ 0.25 µg/mL
MIC (M. catarrhalis): ≤ 1 µg/mL
